Results from patent US12419861B2, “Method for preventing and/or treating chronic traumatic encephalopathy-i” (EUSTRALIS PHARMACEUTICALS LIMITED (trading as Pressura …, priority 2013, dated 2025).

Test system: tau phosphorylation
Test: Tau phosphorylation after concussive injury in the rat (rodent model of concussion, FIG. 3)
Assay type: in vivo
Details: NK1 receptor antagonist administered at 30 min after induction of injury, assessed at 3 day time point, compared with injured untreated animals
Description: Note that concussive injury in the rat causes extensive tau phosphorylation (C,D) by 3 days after the concussive event compared to non-injured animals (A,B). […] Concussion results in perivascular substance P release Having established that hyperphosphorylated tau accumulates perivascularly following concussive injury, we used an animal model of concussion to investigate whether concussion causes perivascular release of substance P. We developed a rodent model of concussion to replicate the concussive event (Donkin et al., 2004, 7th International Neurotrauma Symposium, pp 75-78, Medimond Publishers, Bologna, Italy) and subsequently determined whether substance P was released after such an event. There was a clear increase in brain perivascular substance P immunoreactivity after the concussive event (FIG. 2). […] Administration of a NK1 receptor antagonist prevents tau phosphorylation Having shown that mechanical injury causes release of substance P after concussive injury, we then investigated whether a substance P NK1 receptor antagonist reduces tau hyperphosphorlation after concussive injury. […] Note that concussive injury in the rat causes extensive tau phosphorylation (C,D) by 3 days after the concussive event compared to non-injured animals (A,B). […] Thus, administration of an NK1 receptor antagonist prevents tau hyperphosphorylation and thus prevents the development of CTE.

Question: `CC(=O)N[C@@H](Cc1c[nH]c2ccccc12)C(=O)O` [n-acetyl-L-tryptophan, N-acetyl-L-tryptophan] was tested. Which “effect on tau phosphorylation after concussive injury” value did it give?
Answer: almost complete inhibition of tau phosphorylation
